Assay results taken from patent US11090292B2, “Compositions and methods of use of an inappetance-controlling compound” (Aratana Therapeutics, Inc., priority 2012, dated 2021).
Read-outs that look alike come from different tables or passages of the source.

Tests used:
[1] = Example 1 seven-day dosing regimen study: food consumption and body weight; type: in vivo, Beagle dogs
Procedure: (§1) A controlled, seven-day study was performed to assess the impact of different capromorelin-dosing regimens on the production of insulin-like growth factor 1 (hereinafter “IGF-1”), growth hormone (hereinafter “GH”), and cortisol. The different capromorelin-dosing regimens were also assessed for the impact on food intake and changes in body mass.
(§2) Eighteen adult non-naïve Beagle dogs (nine males and nine females) were divided into one of three treatment groups. Each of the three treatment groups included three males and three females. Group A, which was the control group, was dosed twice per day, via oral gavage, with a vehicle (deionized water alone) and was used as a baseline data point for comparison against the active treatment regimens. Group B comprised an active treatment group that received two treatments per day, via oral gavage, with a capromorelin-containing composition with a concentration of 3 mg/kg capromorelin per treatment. Finally, Group C comprised an active treatment group that received one treatment per day, via oral gavage, with a capromorelin-containing composition with a concentration of 6 mg/kg capromorelin per treatment.
(§3) During the ten day study period, on an at least once-daily basis, each of the dogs was monitored for clinical observations, mortality, morbidity, body mass, and food consumption. Serum samples were taken to measure capromorelin concentration, GH concentration, IGF-1 concentration, and cortisol concentration. Serum samples were taken on days 1, 2, 4, and 7 at −15 minutes (pre-dose), immediately prior to dosing (0 minutes) and 30, 45, 60, 90, 120, 240, 360, and/or 480 minutes post dosing. Additional blood samples were taken at 8 AM on Day 10 of the study to assess long-term impact of the active treatments.

[2] = Example 12: food consumption; type: in vivo, cats; conditions: IV 0.75 mg/kg or oral 3 mg/kg, short treatment
Procedure: (§4) Similar to some of the other pharmacokinetic analyses conducted in dogs and cats, an additional pharmacokinetic study was conducted in cats to assess capromorelin formulations that allow sufficient drug to circulate to produce appetite stimulation and to define the capromorelin pharmacokinetic profile in cats. Briefly, twelve cats were randomized into Group 1 (six cats) and Group 2 (six cats). Group 1 received an intravenous formulation that included 0.75 mg/kg of capromorelin dissolved in sterile water and Group 2 received a previously tested formulation via oral gavage. Food consumption was determined daily for all cats. Specifically, animals were offered feed at approximately 11:00 AM, with the removal of feed at approximately 3:00 PM. Upon removal of feed, the amount consumed was calculated.

[3] = Example 1: clinical observations / toxicological responses; type: in vivo; conditions: 3 mg/kg twice daily or 6 mg/kg once daily, 7 days
Procedure: as §3

[4] = system: cortisol; test: Example 1: serum cortisol concentration; type: in vivo, Beagle dogs; conditions: approximately 0.5 h post treatment, days 1, 2 and 7
Procedure: as §1, §2
During the ten day study period, on an at least once-daily basis, each of the dogs was monitored for clinical observations, mortality, morbidity, body mass, and food consumption. […]

[5] = Example 4: clinical observations / toxicological responses; type: in vivo; conditions: 3 mg/kg once or twice daily, 7 days
Procedure: as §3, with “moribundity,” for “morbidity,”, “mass, acceptability/palatability,” for “mass,”, “serum” for “blood”

[6] = Example 12 cat probe formulation study and pharmacokinetic analysis; type: in vivo, cats; conditions: for peak in serum concentration of capromorelin / time post administration of peak serum concentration: Day 0
Procedure: as §4, with “calculated. […] Initially, the cats were given a seven day acclimation period to adjust to the experimental conditions and feed provided. After the acclimation period, on Day 0, all animals in Group 1 received an intravenous injection of the composition containing a dose of 0.75 mg/kg of capromorelin. On Day 0, the animals in Group 2 received an oral administration of the formulation via gavage at a dose of 3 mg/kg of capromorelin. On Day 0, serum samples were taken from the Group 1 animals at time 0 (pre-administration) and 5 minutes, 10 minutes, 30 minutes, 1 h, 2 h, 4 h, 6 h, 8 h, and 12 h post administration and serum samples were also taken from the Group 2 animals at time 0 (per-administration) and 15 minutes, 30 minutes, 45 minutes, 1 h, 2 h, 4 h, 6 h, 8 h, and 12 h post administration.” for “calculated.”

[7] = Example 9: clinical observations / toxicological responses; type: in vivo; conditions: injection 0.75 or 2 mg/kg, oral 2 or 4 mg/kg, once daily
Procedure: During the seven day study period, on an at least once-daily basis, each of the cats was monitored for clinical observations, mortality, moribundity, body mass, acceptability/palatability, and food consumption. Serum samples were taken to measure capromorelin concentration, IGF-1 concentration, and cortisol concentration. Serum samples were taken on days 1 and 4 immediately prior to dosing (0 minutes) and 30, 60, 90, 120, 240, 360, and/or 480 minutes post dosing. Additional serum samples were taken at 8 AM on Day 7 of the study to assess long-term impact of the active treatments.

[8] = oral gavage, once-daily 6 mg/kg or twice-daily 3 mg/kg, 7 days
[9] = Group 1, intravenous 0.75 mg/kg

## CN1N=C2CCN(C(=O)[C@@H](COCc3ccccc3)NC(=O)C(C)(C)N)C[C@@]2(Cc2ccccc2)C1=O.O=C(O)C(O)C(O)C(=O)O [capromorelin]
[1]; male dogs, once-daily 6 mg/kg or twice-daily 3 mg/kg oral gavage
  increase in weight over the seven day treatment period: 4-5%
[1]; [8]
  food consumed relative to dogs receiving deionized water only: consumed more food
  weight gain relative to dogs receiving deionized water only: gained more weight
[2]
  observed food consumption: did not reveal any significant increases in food consumption
[3]
  toxicological responses: no toxicological responses were noted
[4]
  cortisol concentrations in the serum relative to deionized water: increased
[5]
  toxicological responses: no toxicological responses were noted
[6]; [9]
  peak in serum concentration of capromorelin: around 625 ng/mL
  time post administration of peak serum concentration: around 5 minutes
[6]; Group 2, oral gavage 3 mg/kg
  peak in serum concentration of capromorelin: around 150 ng/mL
  time post administration of peak serum concentration: around 2 hours
[6]; cat, serum, Group 1, intravenous 0.75 mg/kg, read-out: clearance of capromorelin
  clearance: ~30 mL/min/kg
[6]; cat, serum, Group 1, intravenous 0.75 mg/kg, read-out: terminal half-life of capromorelin (converted)
  half-life: ~54 min
[6]; cat, serum, Group 2, oral gavage 3 mg/kg
  Cmax: 149 ng/mL
[6]; cat, serum, Group 2, oral gavage 3 mg/kg, read-out: mean-terminal half-life (converted)
  half-life: 62.4 min
[7]
  toxicological responses: no toxicological responses were noted
